From US12691100B2, “NMT inhibitor treatment of a senescence-associated disease or disorder of the liver” (Imperial College Innovations Limited, priority 2020, dated 2026)

Tested on: IMR90 cells
Experiment: Senolytic survival assay, doxorubicin-induced senescence
Format: cell-based, human
Details: doxorubicin or DMSO; compounds added 7 days after induction; read 7 days later; FIGS. 3A-B
Procedure: IMR90 cells were used to generate inducible ER:RAS (hereinafter iRAS) cells to model Oncogene induced senescence (OIS), through retroviral infection of pLNC-ER:RAS-neo into IMR90 cells followed by selection with Neomycin. IMR90 cells containing the pLNC-ER:RAS plasmid backbone pLXSN were infected in parallel to assess leakiness in the pLNC-ER:RAS system. Treatment with 100 nM 4OHT (Sigma, in DMSO) was used to induce IMR90 ER:RAS cells to undergo oncogene induced senescence (OIS). […]
High-throughput microscopy survival assay—To assess senolytic effect of drugs, cells were cultured for 7 days, culture media was changed to DM0.5 media and drugs in DMSO were added (<5% v/v final concentration), drugs were replenished after 3 days if assay length was longer than 72 h. […] Image acquisition of DAPI stained cells was performed on an automated InCell Analyser 2000 (GE Healthcare®) and high-content analysis on the InCell Investigator 2.7.3 software used to quantify number of DAPI positive cells per well. […] Survival was measured as cell counts relative to DMSO treated quiescent or senescent cells.
IMR90 cells were treated with doxorubicin (to induce senescence), or DMSO (as a control). […] Senolytic activity of inhibitors was determined 7 days after adding the drugs with replenishment after 3 days, cells were fixed, imaged and cells numbers were quantified using high throughput microscopy. […]

## Cc1nn(C)c(C)c1CCOc1c(-c2ccc3c(c2)c(CN(C)C)nn3C)ccc(F)c1F [Compound 1, 1-(5-(3,4-difluoro-2-(2-(1,3,5-trimethyl-1H-pyrazol-4-yl)ethoxy)phenyl)-1-methyl-1H-indazol-3-yl)-N,N-dimethylmethanamine]
  Survival (cell counts relative to DMSO), senescent versus control cells: selectively kill senescent cells induced to senescence by doxorubicin
